Results on 16 compounds are retold here after US20250320213A1, “Nitrogen-Containing Heterocyclic Compounds” (Pfizer Inc., priority 2024, published 2025).

One assay concerns the target T1, STAT6 (Homo sapiens, UniProt P42226).
T1 construct: stably transfected HaCaT keratinocyte cell line, which expresses NanoLuc luciferase reporter gene under the transcriptional control of the STAT6 responsive promoter; endogenous in cells; host or cells: HaCaT keratinocyte reporter cell line (stably transfected with a NanoLuc reporter)
T1 sequence (P42226 1-847): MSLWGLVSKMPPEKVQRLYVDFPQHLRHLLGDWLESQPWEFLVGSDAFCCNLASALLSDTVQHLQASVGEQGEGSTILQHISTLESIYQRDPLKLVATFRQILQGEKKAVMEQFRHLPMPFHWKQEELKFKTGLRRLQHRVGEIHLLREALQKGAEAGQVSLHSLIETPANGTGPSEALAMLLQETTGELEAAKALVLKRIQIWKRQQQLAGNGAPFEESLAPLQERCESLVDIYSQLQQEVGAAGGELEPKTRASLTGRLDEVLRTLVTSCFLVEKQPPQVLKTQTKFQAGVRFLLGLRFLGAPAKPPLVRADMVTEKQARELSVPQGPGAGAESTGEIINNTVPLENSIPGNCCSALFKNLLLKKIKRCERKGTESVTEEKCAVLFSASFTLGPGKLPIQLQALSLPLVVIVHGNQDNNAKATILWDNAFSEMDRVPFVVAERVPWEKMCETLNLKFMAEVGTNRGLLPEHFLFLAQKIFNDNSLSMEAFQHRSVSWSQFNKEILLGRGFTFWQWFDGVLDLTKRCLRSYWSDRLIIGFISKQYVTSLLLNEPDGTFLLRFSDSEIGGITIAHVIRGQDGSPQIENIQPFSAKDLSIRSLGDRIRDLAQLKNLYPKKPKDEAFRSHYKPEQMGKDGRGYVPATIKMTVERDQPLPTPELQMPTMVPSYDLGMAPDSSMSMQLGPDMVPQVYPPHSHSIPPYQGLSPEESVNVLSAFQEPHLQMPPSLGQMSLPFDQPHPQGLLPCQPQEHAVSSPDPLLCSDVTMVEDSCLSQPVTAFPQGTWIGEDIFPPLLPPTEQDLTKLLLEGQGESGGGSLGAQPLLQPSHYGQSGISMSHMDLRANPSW
Briefly: STAT6 Reporter Luciferase Assay (IL-13 stimulated HaCaT keratinocyte NanoLuc reporter cells). The settings on record: IL-13 stimulated HaCaT STAT6 NanoLuc reporter cells; read-out: Reporter EC50. In kind it is cell-based. As to the method: Pharmacological measurements of STAT6 transcriptional activity through the IL-13-IL-13 receptor/IL-4 receptor pathway were made with a stably transfected HaCaT keratinocyte cell line, which expresses NanoLuc luciferase reporter gene under the transcriptional control of the STAT6 responsive promoter for IL-13Ra2. The readout of the STAT6 activity utilized Promega Nano-Glo Luciferase assay kit.
The reporter cells were cultured in a growth media comprised of DMEM High Glucose, no calcium and no glutamine, 10% heat inactivated fetal bovine serum (HI FBS), 1% 100× Glutamax, and 100 U/mL Penicillin-Streptomycin (units of penicillin in 1 mL of streptomycin). Seven thousand cells were plated in 25 microliter (μL) per well in a 384-well, white bottom, tissue culture plate. Cells were cultured overnight at 37° C. The next day, test compounds (solubilized and serially diluted in DMSO, in an 11 point, 4-fold dilution series in duplicate) were spotted, 60 nanoliters (nL) per well, into a 384 well v-bottom polypropylene plate. Thirty μL per well of 37° C. dosing media (Dulbecco's modified eagle medium (DMEM) High Glucose, no calcium and no glutamine with 2% HI FBS) was added to the compound plate. Growth media was removed from the cell plate, and the cells were washed with DPBS. Twenty μL per well of compounds diluted in dosing media were transferred from the compound plate to the cell plate and the compounds were further diluted with an additional 15 μL of dosing media in the cell plate: the cell plate was incubated for two hours at 37° C. After two hours, STAT6 activity was stimulated with the addition of 5 μL per well of IL-13 (R&D Systems) in dosing media with a final concentration of 0.12 nM IL13. Cells were incubated at 37° C. for 4 hours to allow for reporter gene expression, then all media was removed from the plate. The cell plates were treated with assay buffer and Luciferase substrate from Nano-Glo Luciferase Assay Kit for 15 min and then measured for luminescence on an EnVision 2105 multilabel reader (PerkinElmer).
As for `Cc1nn(C)c2c1CN(C(=O)c1ccc(N3CCc4c(c(C(=O)NCc5ccc(NC(=O)N(C)C)cc5)nn4C(C)C)C3)nc1)C2` [Example 401, 5-(5-(1,3-dimethyl-1,4,5,6-tetrahydropyrrolo[3,4-c]pyrazole-5-carbonyl)pyridin-2-yl)-N-(4-(3,3-dimethylureido)benzyl)-1-isopropyl-4,5,6,7-tetrahydro-1H-pyrazolo[4,3-c]pyridine-3-carboxamide], the EC50 (usually the concentration needed to bring the measured effect to its halfway point) was 32 nM. Same read-out and setting: under `CC(C)n1nc(C(=O)NCc2ccc(NC(=O)N(C)C)cc2)c2c1CCN(c1ccc(C(=O)N3Cc4cccc(C#N)c4C3)cn1)C2` [Example 415, 5-(5-(4-cyanoisoindoline-2-carbonyl)pyridin-2-yl)-N-(4-(3,3-dimethylureido)benzyl)-1-isopropyl-4,5,6,7-tetrahydro-1H-pyrazolo[4,3-c]pyridine-3-carboxamide] stands 3 nM; under `CC(C)n1nc(C(=O)NCc2ccc(NC(=O)N(C)C)cc2)c2c1CCN(c1ccc(C(=O)N3Cc4ncsc4C3)cn1)C2` [Example 402, 5-(5-(5,6-dihydro-4H-pyrrolo[3,4-d]thiazole-5-carbonyl)pyridin-2-yl)-N-(4-(3,3-dimethylureido)benzyl)-1-isopropyl-4,5,6,7-tetrahydro-1H-pyrazolo[4,3-c]pyridine-3-carboxamide], 3 nM; under `CC(C)n1nc(C(=O)NCc2ccc(NC(=O)N(C)C)cc2)c2c1CCN(c1ccc(C(=O)N(C)CCO)cn1)C2` [Example 332, N-(4-(3,3-dimethylureido)benzyl)-5-(5-((2-hydroxyethyl)(methyl)carbamoyl)pyridin-2-yl)-1-isopropyl-4,5,6,7-tetrahydro-1H-pyrazolo[4,3-c]pyridine-3-carboxamide], 160 nM. On the same count and under the same terms, under `CO[C@@H]1CN(C(=O)c2ccc(N3CCc4c(c(C(=O)NCc5ccc(NC(=O)N(C)C)cc5)nn4C(C)C)C3)nc2)C[C@H]1OC` (racemic) [Example 333, rac-5-(5-((3R,4R)-3,4-dimethoxypyrrolidine-1-carbonyl)pyridin-2-yl)-N-(4-(3,3-dimethylureido)benzyl)-1-isopropyl-4,5,6,7-tetrahydro-1H-pyrazolo[4,3-c]pyridine-3-carboxamide] stands 2800 nM; under `CC(C)n1nc(C(=O)NCc2ccc(NC(=O)N(C)C)cc2)c2c1CCN(c1ccc(C(=O)N3CC(=O)NC(C)(C)C3)cn1)C2` [Example 294, 5-(5-(3,3-dimethyl-5-oxopiperazine-1-carbonyl)pyridin-2-yl)-N-(4-(3,3-dimethylureido)benzyl)-1-isopropyl-4,5,6,7-tetrahydro-1H-pyrazolo[4,3-c]pyridine-3-carboxamide], 961 nM; under `CC(C)n1nc(C(=O)NCc2ccc(NC(=O)N(C)C)cc2)c2c1CCN(c1ccc(C(=O)N3CCc4nn(C)cc4C3)cn1)C2` [Example 364, N-(4-(3,3-dimethylureido)benzyl)-1-isopropyl-5-(5-(2-methyl-4,5,6,7-tetrahydro-2H-pyrazolo[4,3-c]pyridine-5-carbonyl)pyridin-2-yl)-4,5,6,7-tetrahydro-1H-pyrazolo[4,3-c]pyridine-3-carboxamide], 20 nM. For `CC(C)n1nc(C(=O)NCc2ccc(NC(=O)N(C)C)cc2)c2c1CCN(c1ccc(C(=O)N3CCC4(CCC(=O)N4C)CC3)cn1)C2` [Example 564, N-(4-(3,3-dimethylureido)benzyl)-1-isopropyl-5-(5-(1-methyl-2-oxo-1,8-diazaspiro[4.5]decane-8-carbonyl)pyridin-2-yl)-4,5,6,7-tetrahydro-1H-pyrazolo[4,3-c]pyridine-3-carboxamide], the EC50 amounted to 223 nM. The same measure, in the same setting: under `CC(C)n1nc(C(=O)NCc2ccc(NC(=O)N3CCN(CCC(=O)O)CC3)c(F)c2)c2c1[C@@H](C)CN(c1ccc(C(=O)N(C)C)cc1)C2` [Example 669, (S)-3-(4-((4-((5-(4-(dimethylcarbamoyl)phenyl)-1-isopropyl-7-methyl-4,5,6,7-tetrahydro-1H-pyrazolo[4,3-c]pyridine-3-carboxamido)methyl)-2-fluorophenyl)carbamoyl)piperazin-1-yl)propanoic acid] stands 201 nM. For the compound `CC(C)n1nc(C(=O)NCc2ccc(NC(=O)N(C)C)cc2)c2c1CCN(c1ccc(C(=O)N3Cc4ccccc4C3)cn1)C2` [Example 442, N-(4-(3,3-dimethylureido)benzyl)-5-(5-(isoindoline-2-carbonyl)pyridin-2-yl)-1-isopropyl-4,5,6,7-tetrahydro-1H-pyrazolo[4,3-c]pyridine-3-carboxamide], the EC50 stood at 2 nM. Consider `CC(C)n1nc(C(=O)NCc2ccc(NC(=O)N(C)C)cc2)c2c1CCN(c1ccc(C(=O)N3CC(C#N)C3)cn1)C2` [Example 210, 5-(5-(3-cyanoazetidine-1-carbonyl)pyridin-2-yl)-N-(4-(3,3-dimethylureido)benzyl)-1-isopropyl-4,5,6,7-tetrahydro-1H-pyrazolo[4,3-c]pyridine-3-carboxamide], for which the EC50 was determined as 1060 nM.

Regarding `CC(C)n1nc(C(=O)NCc2ccc(NC(=O)N3CCC4(CC3)CN(C)CCO4)c(F)c2)c2c1[C@@H](C)CN(c1ccc(C(=O)N(C)C)cc1)C2` [Example 643, (S)-N-(4-((5-(4-(dimethylcarbamoyl)phenyl)-1-isopropyl-7-methyl-4,5,6,7-tetrahydro-1H-pyrazolo[4,3-c]pyridine-3-carboxamido)methyl)-2-fluorophenyl)-4-methyl-1-oxa-4,9-diazaspiro[5.5]undecane-9-carboxamide], the EC50 is 1 nM. Same read-out and setting: under `CC(C)n1nc(C(=O)NCc2ccc(NC(=O)N(C)C)cc2)c2c1CCN(c1ccc(C(=O)N3C[C@@H](C)O[C@@H](C)C3)cn1)C2` [Example 207, 5-(5-((2R,6S)-2,6-dimethylmorpholine-4-carbonyl)pyridin-2-yl)-N-(4-(3,3-dimethylureido)benzyl)-1-isopropyl-4,5,6,7-tetrahydro-1H-pyrazolo[4,3-c]pyridine-3-carboxamide] stands 272 nM. The same measure, in the same setting: then `COCCC1(N)CCN(C(=O)Nc2ccc(CNC(=O)c3nn(C(C)C)c4c3CN(c3ccc(C(=O)N(C)C)cc3)C[C@@H]4C)cc2)C1` (single isomer, unassigned) [Example 670, (S)-N-(4-((R*)-3-amino-3-(2-methoxyethyl)pyrrolidine-1-carboxamido)benzyl)-5-(4-(dimethylcarbamoyl)phenyl)-1-isopropyl-7-methyl-4,5,6,7-tetrahydro-1H-pyrazolo[4,3-c]pyridine-3-carboxamide], with 1 nM; and `CC(C)n1nc(C(=O)NCc2ccc(NC(=O)N(C)C)cc2)c2c1CCN(c1ccc(C(=O)N3CCn4nc(C#N)cc4C3)cn1)C2` [Example 386, 5-(5-(2-cyano-4,5,6,7-tetrahydropyrazolo[1,5-a]pyrazine-5-carbonyl)pyridin-2-yl)-N-(4-(3,3-dimethylureido)benzyl)-1-isopropyl-4,5,6,7-tetrahydro-1H-pyrazolo[4,3-c]pyridine-3-carboxamide], with 56 nM.

The assay is the same for the next values; noted with them: STAT6 NanoLuc luciferase reporter, IL-13 stimulated HaCaT keratinocyte cells; read-out: Reporter EC50.
In the case of `CC(C)n1nc(C(=O)NCc2ccc(NC(=O)N3CCC(C(F)F)C3)cc2)c2c1CCN(c1ccc(C(=O)N(C)C)cn1)C2` (racemic) [Example 145, rac-(R)-N-(4-(3-(difluoromethyl)pyrrolidine-1-carboxamido)benzyl)-5-(5-(dimethylcarbamoyl)pyridin-2-yl)-1-isopropyl-4,5,6,7-tetrahydro-1H-pyrazolo[4,3-c]pyridine-3-carboxamide], the EC50 amounted to 6 nM.
